Experimental findings from patent publication US20250236629A1, “MEDIUM- OR MACRO-CYCLIC BENZYL-SUBSTITUTED HETEROCYCLE DERIVATIVES AND RELATED USES” (CENTESSA PHARMACEUTICALS (UK) LIMITED, priority 2022, published 2025) are described below.

The test concerns the target T1, human orexin type 2 receptor (hOX2R) (Homo sapiens, UniProt O43614).
T1 construct: the Orexin receptor cDNA was inserted into pcDNA3.1(+) plasmid vector; expressed in transfected cells
T1 sequence (O43614 1-444): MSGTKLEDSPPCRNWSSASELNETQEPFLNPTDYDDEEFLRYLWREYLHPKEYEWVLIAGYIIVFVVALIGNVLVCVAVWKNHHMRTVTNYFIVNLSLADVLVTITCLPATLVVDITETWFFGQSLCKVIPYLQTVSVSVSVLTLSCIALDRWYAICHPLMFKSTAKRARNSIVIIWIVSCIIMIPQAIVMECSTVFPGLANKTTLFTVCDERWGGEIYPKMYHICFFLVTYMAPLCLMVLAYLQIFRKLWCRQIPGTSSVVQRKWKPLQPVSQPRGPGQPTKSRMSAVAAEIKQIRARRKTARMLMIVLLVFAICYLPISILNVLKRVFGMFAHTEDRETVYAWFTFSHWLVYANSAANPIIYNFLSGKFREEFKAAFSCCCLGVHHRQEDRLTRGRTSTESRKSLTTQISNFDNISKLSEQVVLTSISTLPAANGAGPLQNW
Kind of test: Orexin type 2 receptor agonist activity, intracellular Ca2+ (FLIPR TETRA) in CHO cells. As to conditions: CHO cells expressing hOX2R; Ca2+ fluorescence area; 100% = 10 nM human orexin A; read-out: hOx2 pEC50 (converted). The test is classed as cell-based. The protocol: Stable cell line generation. Obtainment of cells stably expressing either human orexin type 2 or human orexin type 1 receptor: to obtain a stable cell line the Orexin receptor cDNA was inserted into pcDNA3.1(+) plasmid vector and clones identified by G418 drug resistance selection. […] A single clone for OX2R—CHO and OX1R—CHO were grown in bulk and frozen to generate a cell bank for routine screening.
Measurement of orexin type 2 receptor agonist activity. Chinese hamster ovary (CHO) cells expressing human orexin type 2 receptor (hOX2R) or human orexin type 1 receptor (hOX1R) were seeded in each well of 384 well black clear bottom plates (BD Flacon) at 10,000 cells per well and cultured for 24 hr in an Ham's F12 (Gibco) medium containing 10% fetal calf serum (Sigma Aldrich) under the conditions of 37° C., 5% CO2. After removal of the medium, 50 μl of assay buffer 1 (0.1% bovine serum albumin (Sigma Aldrich), 20 mM HEPES (Molecular Dimensions), […] probenecid (Sigma Aldrich), 1× Calcium 5 dye (Molecular Devices) in Hank's balanced salt solution (Invitrogen)) was added, and the cells were incubated for 60 min under the conditions of 37° C., 5% CO2. A test compound was dissolved in dimethyl sulfoxide (Sigma Aldrich) to 10 mM, and then diluted with assay buffer 2 (20 mM HEPES, Hank's balanced salt solution, 0.1% bovine serum albumin). For the reaction, a test compound solution (10 μl) was added using Fluorescent Imaging Plate Reader TETRA (FLIPR TETRA: manufactured by Molecular Devices), a fluorescence value (excitation wavelength 488 nm, measurement wavelength 570 nm) of each well was measured every one second for 2 min, and the agonist activity was determined using the area of the fluorescence value as an indicator of intracellular Ca^2+ concentration. The agonist activity of the test compound was calculated assuming that the fluorescence value of the well added with only the dilution buffer was 0% and the fluorescence value of the well added with 10 nM human orexin A (Tocris) buffer was 100%.
Values of hOx2 pEC50 in Table B are presented in ranges, in which 6.0≤“+”<7.0, 7.0≤“++”<8.0, 8.0≤“+++”<9.0, and 9.0≤“++++”<10.4.
On to `O=C1CCOc2ccccc2-c2cccc(c2)C[C@H]2[C@@H](NS(=O)(=O)C(F)F)CCCN12` [Example 26, 1,1-difluoro-N-((4^2S,4^3S)-5-oxo-8-oxa-4(2,1)-piperidina-1(1,2),2(1,3)-dibenzenacyclooctaphane-4^3-yl)methanesulfonamide], for which the EC50 is 1 to 10 nM.
`CN1CCOc2c(F)cccc2-c2cccc(c2)C[C@H]2[C@@H](NS(=O)(=O)C(F)F)C(F)(F)CN2C1=O` [Example 1, 1,1-difluoro-N-((4^2S,4^3R)-1^3,4^4,4^4-trifluoro-6-methyl-5-oxo-9-oxa-6-aza-4(2,1)-pyrrolidina-1(1,2),2(1,3)-dibenzenacyclononaphane-4^3-yl)methanesulfonamide]: the EC50 was 10 to 100 nM.
For `CCS(=O)(=O)N[C@@H]1[C@@H]2Cc3cccc(c3F)-c3cccc(F)c3OCCN(C)C(=O)N2CC12CC2` [Example 9, N-((2′S,3′S)-2′,3′-difluoro-6′-methyl-5′-oxospiro[cyclopropane-1,4′-9-oxa-6-aza-4(2,1)-pyrrolidina-1(1,2),2(1,3)-dibenzenacyclononaphan]-3′-yl)ethanesulfonamide], the EC50 was 1 to 10 nM.
Regarding `CN1CCOc2c(F)cccc2-c2cccc(c2)C[C@H]2[C@@H](NS(=O)(=O)CF)[C@@H](F)CN2C1=O` [Example 21, N-((4^2S,4^3R,4^4S)-1^3,4^4-difluoro-6-methyl-5-oxo-9-oxa-6-aza-4(2,1)-pyrrolidina-1(1,2),2(1,3)-dibenzenacyclononaphane-4^3-yl)-1-fluoromethanesulfonamide], the EC50 is 1 to 10 nM.
For `CCS(=O)(=O)N[C@@H]1[C@@H]2Cc3cccc(c3)-c3ccccc3OCCN(C)C(=O)N2CC1(F)F` [Example 23, N-((4^2S,4^3R)-4^4,4^4-difluoro-6-methyl-5-oxo-9-oxa-6-aza-4(2,1)-pyrrolidina-1(1,2),2(1,3)-dibenzenacyclononaphane-4^3-yl)ethanesulfonamide], the EC50 was 1 to 10 nM.
Then `CCN1CCOc2ccccc2-c2cccc(c2)C[C@H]2[C@@H](NS(=O)(=O)C(F)F)C3(CC3)CN2C1=O` [Example 10, N-((2′S,3′S)-6′-ethyl-5′-oxospiro[cyclopropane-1,4′-9-oxa-6-aza-4(2,1)-pyrrolidina-1(1,2),2(1,3)-dibenzenacyclononaphan]-3′-yl)-1,1-difluoromethanesulfonamide], with 1 to 10 nM; and `CN1CCOc2ccccc2-c2cccc(c2F)C[C@H]2[C@@H](NS(=O)(=O)CF)C3(CC3)CN2C1=O` [Example 25, 1-fluoro-N-((2′S,3′S)-2′-fluoro-6′-methyl-5′-oxospiro[cyclopropane-1,4′-9-oxa-6-aza-4(2,1)-pyrrolidina-1(1,2),2(1,3)-dibenzenacyclononaphan]-3′-yl)methanesulfonamide], with 1 to 10 nM.
For `CN1CCOc2c(F)cccc2-c2cccc(c2)C[C@H]2[C@@H](NS(=O)(=O)C(F)F)C3(CC3)CN2C1=O` [Example 34], the EC50 was 1 to 10 nM.
For `CCS(=O)(=O)N[C@H]1[C@@H](F)CN2C(=O)N(C)CCOc3c(F)cccc3-c3cccc(c3)C[C@@H]12` [Example 16, N-((4^2S,4^3R,4^4S)-1^3,4^4-difluoro-6-methyl-5-oxo-9-oxa-6-aza-4(2,1)-pyrrolidina-1(1,2),2(1,3)-dibenzenacyclononaphane-4^3-yl)ethanesulfonamide], the EC50 was 1 to 10 nM.
Then `CCS(=O)(=O)N[C@H]1[C@@H](F)CN2C(=O)N(C)CCOc3ccccc3-c3cccc(c3)C[C@@H]12` [Example 15, N-((4^2S,4^3R,4^4S)-4^4-fluoro-6-methyl-5-oxo-9-oxa-6-aza-4(2,1)-pyrrolidina-1(1,2),2(1,3)-dibenzenacyclononaphane-4^3-yl)ethanesulfonamide], with 1 to 10 nM; and `CC(C)S(=O)(=O)N[C@H]1CCCN2C(=O)CCOc3ccccc3-c3cccc(c3F)C[C@@H]12` [Example 3, N-((4^2S,4^3S)-22-fluoro-5-oxo-8-oxa-4(2,1)-piperidina-1(1,2),2(1,3)-dibenzenacyclooctaphane-4^3-yl)propane-2-sulfonamide], with 0.0398 to 1 nM; and `CN1CCOc2ccccc2-c2cccc(c2F)C[C@H]2[C@@H](NS(=O)(=O)C(F)F)C3(CC3)CN2C1=O` [Example 4, 1,1-difluoro-N-((2′S,3′S)-2′-fluoro-6′-methyl-5′-oxospiro[cyclopropane-1,4′-9-oxa-6-aza-4(2,1)-pyrrolidina-1(1,2),2(1,3)-dibenzenacyclononaphan]-3′-yl)methanesulfonamide], with 1 to 10 nM.
In the case of `O=C1CCOc2ccccc2-c2cccc(c2F)C[C@H]2[C@@H](NS(=O)(=O)C3(F)CC3)CCCN12` [Example 36, 1-fluoro-N-((4^2S,4^3S)-2^2-fluoro-5-oxo-8-oxa-4(2,1)-piperidina-1(1,2),2(1,3)-dibenzenacyclooctaphane-4^3-yl)cyclopropane-1-sulfonamide], the EC50 is 1 to 10 nM.
On to `O=C1CCOc2ccccc2-c2cccc(c2)C[C@H]2[C@@H](NS(=O)(=O)C3(F)CC3)[C@@H](F)CCN12` [Example 45, 1-fluoro-N-((4^2S,4^3R,4^4S)-4^4-fluoro-5-oxo-8-oxa-4 (2,1)-piperidina-1 (1,2),2 (1,3)-dibenzenacyclooctaphane-4^3-yl)cyclopropane-1-sulfonamide], for which the EC50 is 1 to 10 nM.
Then `O=C1N(CC(F)F)CCOc2c(F)cccc2-c2cccc(c2)C[C@H]2[C@@H](NS(=O)(=O)CF)C3(CC3)CN12` [Example 22, N-((2′S,3′S)-6′-(2,2-difluoro-ethyl)-3′-fluoro-5′-oxospiro[cyclopropane-1,4′-9-oxa-6-aza-4(2,1)-pyrrolidina-1(1,2),2(1,3)-dibenzenacyclononaphan]-3′-yl)-1-fluoromethanesulfonamide], with 1 to 10 nM; and `CCN1CCOc2ccccc2-c2cccc(c2)C[C@H]2[C@@H](NS(=O)(=O)CF)C3(CC3)CN2C1=O` [Example 37, N-((2′S,3′S)-6′-ethyl-5′-oxospiro[cyclopropane-1,4′-9-oxa-6-aza-4(2,1)-pyrrolidina-1(1,2),2(1,3)-dibenzenacyclononaphan]-3′-yl)-1-fluoromethanesulfonamide], with 0.0398 to 1 nM.
Regarding `CN1CCOc2c(F)cc(F)cc2-c2cccc(c2F)C[C@H]2[C@@H](NS(=O)(=O)C(F)F)[C@@H](F)CN2C1=O` [Example 11, 1,1-difluoro-N-((4^2S,4^3R,4^4S)-1^3,1^5,2^2,4^4-tetrafluoro-6-methyl-5-oxo-9-oxa-6-aza-4(2,1)-pyrrolidina-1(1,2),2(1,3)-dibenzenacyclononaphane-4^3-yl)methanesulfonamide], the EC50 was 10 to 100 nM.
For the compound `CN1CCOc2c(F)cccc2-c2cccc(c2)C[C@H]2[C@@H](NS(=O)(=O)C(F)F)[C@@H](F)CN2C1=O` [Example 20, N-((4^2S,4^3R,4^4S)-1^3,4^4-difluoro-6-methyl-5-oxo-9-oxa-6-aza-4(2,1)-pyrrolidina-1(1,2),2(1,3)-dibenzenacyclononaphane-4^3-yl)-1,1-difluoromethanesulfonamide], the EC50 was 1 to 10 nM.
For `CN1CCOc2c(F)cccc2-c2cccc(c2F)C[C@H]2[C@@H](NS(=O)(=O)CF)[C@@H](F)CN2C1=O` [Example 12, 1-fluoro-N-((4^2S,4^3R,4^4S)-1^3,2^2,4^4-trifluoro-6-methyl-5-oxo-9-oxa-6-aza-4(2,1)-pyrrolidina-1(1,2),2(1,3)-dibenzenacyclononaphane-4^3-yl)methanesulfonamide], the EC50 is 1 to 10 nM.
Take `CN1CCOc2ccccc2-c2cccc(c2)C[C@H]2[C@@H](NS(=O)(=O)C(C)(C)F)C3(CC3)CN2C1=O` [Example 38, 2-fluoro-N-((2′S,3′S)-6′-methyl-5′-oxospiro[cyclopropane-1,4′-9-oxa-6-aza-4(2,1)-pyrrolidina-1(1,2),2(1,3)-dibenzenacyclononaphan]-3′-yl)propane-2-sulfonamide]: the EC50 is 1 to 10 nM.
Take `O=C1CCOc2c(F)cc(F)cc2-c2cccc(c2)C[C@H]2[C@@H](NS(=O)(=O)CF)CCCN12` [Example 13, N-((4^2S,4^3S)-1^3,1^5-difluoro-5-oxo-8-oxa-4(2,1)-piperidina-1(1,2),2(1,3)-dibenzenacyclooctaphane-4^3-yl)-1-fluoromethanesulfonamide]: the EC50 is 1 to 10 nM.
